Reference: PubChem BioAssay (NCI)
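In this assay, cells in 96-well plates receive the compound at five concentrations for 48 hours. Endpoints are linearly interpolated between the surrounding concentrations. Abbreviation: GI50, concentration required for 50% inhibition of growth. TGI denotes the concentration required for complete inhibition of growth.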

Experiments:
Experiment in all cases: inhibition of tumour cell growth, NCI panel, 48 h
ACHN renal = system: ACHN renal
CCRF-CEM leukemia = system: CCRF-CEM leukemia
SF-268 CNS = system: SF-268 CNS
HT29 colon = system: HT29 colon
NCI-H460 lung = system: NCI-H460 lung
HCT-116 colon = system: HCT-116 colon
HOP-92 NSCLC = system: HOP-92 NSCLC
NCI/ADR-RES ovarian = system: NCI/ADR-RES ovarian
MCF7 breast = system: MCF7 breast
SK-OV-3 ovarian = system: SK-OV-3 ovarian
UO-31 renal = system: UO-31 renal
A498 renal = system: A498 renal
TK-10 renal = system: TK-10 renal
NCI-H522 lung = system: NCI-H522 lung
MOLT-4 leukemia = system: MOLT-4 leukemia
SN12C renal = system: SN12C renal
HL-60(TB) leukemia = system: HL-60(TB) leukemia
DU-145 prostate = system: DU-145 prostate
EKVX NSCLC = system: EKVX NSCLC
OVCAR-3 ovarian = system: OVCAR-3 ovarian
MDA-MB-231 breast = system: MDA-MB-231 breast
A549 NSCLC = system: A549 NSCLC
UACC-62 melanoma = system: UACC-62 melanoma
BT-549 breast = system: BT-549 breast
NCI-H226 lung = system: NCI-H226 lung
SK-MEL-28 melanoma = system: SK-MEL-28 melanoma
SK-MEL-2 melanoma = system: SK-MEL-2 melanoma
HCT-15 colon = system: HCT-15 colon
U251 CNS = system: U251 CNS
SF-295 CNS = system: SF-295 CNS
M14 melanoma = system: M14 melanoma
UACC-257 melanoma = system: UACC-257 melanoma
LOX IMVI melanoma = system: LOX IMVI melanoma
HOP-62 NSCLC = system: HOP-62 NSCLC
OVCAR-5 ovarian = system: OVCAR-5 ovarian
T-47D breast = system: T-47D breast
KM12 colon = system: KM12 colon
SW-620 colon = system: SW-620 colon
COLO 205 colon = system: COLO 205 colon
RPMI-8226 leukemia = system: RPMI-8226 leukemia
SF-539 CNS = system: SF-539 CNS
K-562 leukemia = system: K-562 leukemia
MDA-MB-435 = system: MDA-MB-435
HS 578T breast = system: HS 578T breast
PC-3 prostate = system: PC-3 prostate
MALME-3M melanoma = system: MALME-3M melanoma
IGROV1 ovarian = system: IGROV1 ovarian
OVCAR-4 ovarian = system: OVCAR-4 ovarian
HCC-2998 colon = system: HCC-2998 colon
SK-MEL-5 melanoma = system: SK-MEL-5 melanoma
786-0 renal = system: 786-0 renal
SNB-19 CNS = system: SNB-19 CNS
OVCAR-8 ovarian = system: OVCAR-8 ovarian
CAKI-1 renal = system: CAKI-1 renal

COc1ccc2c(c1)C(=O)c1c-2c(N2CCN(C(=O)CNCCN(C)C)CC2)nc2ccccc12
GI50 (ACHN renal): 4.65 µM
TGI (ACHN renal): 17.4 µM
GI50 (CCRF-CEM leukemia): 1.39 µM
TGI (CCRF-CEM leukemia): 4.5 µM
GI50 (SF-268 CNS): 2.28 µM
TGI (SF-268 CNS): 6 µM
GI50 (HT29 colon): 0.362 µM
TGI (HT29 colon): 1.25 µM
GI50 (NCI-H460 lung): 1.17 µM
TGI (NCI-H460 lung): 2.55 µM
GI50 (HCT-116 colon): 1.22 µM
TGI (HCT-116 colon): 2.7 µM
GI50 (HOP-92 NSCLC): 1.57 µM
TGI (HOP-92 NSCLC): 4.15 µM
GI50 (NCI/ADR-RES ovarian): 4.28 µM
TGI (NCI/ADR-RES ovarian): 19.9 µM
GI50 (MCF7 breast): 1.62 µM
TGI (MCF7 breast): 3.11 µM
GI50 (SK-OV-3 ovarian): 14 µM
TGI (SK-OV-3 ovarian): 27.5 µM
GI50 (UO-31 renal): 1.38 µM
TGI (UO-31 renal): 2.78 µM
GI50 (A498 renal): 2.14 µM
TGI (A498 renal): 5 µM
GI50 (TK-10 renal): 4.15 µM
TGI (TK-10 renal): 17.8 µM
GI50 (NCI-H522 lung): 1.76 µM
TGI (NCI-H522 lung): 3.44 µM
GI50 (MOLT-4 leukemia): 1.47 µM
TGI (MOLT-4 leukemia): 5.98 µM
GI50 (SN12C renal): 2.54 µM
TGI (SN12C renal): 7.56 µM
GI50 (HL-60(TB) leukemia): 2.4 µM
TGI (HL-60(TB) leukemia): 6.31 µM
GI50 (DU-145 prostate): 3.32 µM
TGI (DU-145 prostate): 13.3 µM
GI50 (EKVX NSCLC): 3.87 µM
TGI (EKVX NSCLC): 15.7 µM
GI50 (OVCAR-3 ovarian): 2.01 µM
TGI (OVCAR-3 ovarian): 5.76 µM
GI50 (MDA-MB-231 breast): 1.79 µM
TGI (MDA-MB-231 breast): 3.61 µM
GI50 (A549 NSCLC): 2.22 µM
TGI (A549 NSCLC): 10.1 µM
GI50 (UACC-62 melanoma): 2.16 µM
TGI (UACC-62 melanoma): 3.69 µM
GI50 (BT-549 breast): 1.75 µM
TGI (BT-549 breast): 3.43 µM
GI50 (NCI-H226 lung): 4.11 µM
TGI (NCI-H226 lung): 18 µM
GI50 (SK-MEL-28 melanoma): 1.67 µM
TGI (SK-MEL-28 melanoma): 3.04 µM
GI50 (SK-MEL-2 melanoma): 2.07 µM
TGI (SK-MEL-2 melanoma): 3.83 µM
GI50 (HCT-15 colon): 2.3 µM
TGI (HCT-15 colon): 5.44 µM
GI50 (U251 CNS): 2.19 µM
TGI (U251 CNS): 4.68 µM
GI50 (SF-295 CNS): 2.48 µM
TGI (SF-295 CNS): 5.34 µM
GI50 (M14 melanoma): 1.88 µM
TGI (M14 melanoma): 3.52 µM
GI50 (UACC-257 melanoma): 1.95 µM
TGI (UACC-257 melanoma): 3.7 µM
GI50 (LOX IMVI melanoma): 1.71 µM
TGI (LOX IMVI melanoma): 3.33 µM
GI50 (HOP-62 NSCLC): 1.86 µM
TGI (HOP-62 NSCLC): 4.18 µM
GI50 (OVCAR-5 ovarian): 2.2 µM
TGI (OVCAR-5 ovarian): 5.82 µM
GI50 (T-47D breast): 1.38 µM
TGI (T-47D breast): 3.07 µM
GI50 (KM12 colon): 1.83 µM
TGI (KM12 colon): 4.38 µM
GI50 (SW-620 colon): 1.27 µM
TGI (SW-620 colon): 2.53 µM
GI50 (COLO 205 colon): 1.65 µM
TGI (COLO 205 colon): 3.2 µM
GI50 (RPMI-8226 leukemia): 1.67 µM
TGI (RPMI-8226 leukemia): 3.84 µM
GI50 (SF-539 CNS): 1.6 µM
TGI (SF-539 CNS): 3.03 µM
GI50 (K-562 leukemia): 0.72 µM
TGI (K-562 leukemia): > 100 µM
GI50 (MDA-MB-435): 2.38 µM
TGI (MDA-MB-435): 4.98 µM
GI50 (HS 578T breast): 2.67 µM
TGI (HS 578T breast): 9.87 µM
GI50 (PC-3 prostate): 3.48 µM
TGI (PC-3 prostate): 15.1 µM
GI50 (MALME-3M melanoma): 1.96 µM
TGI (MALME-3M melanoma): 4.94 µM
GI50 (IGROV1 ovarian): 1.11 µM
TGI (IGROV1 ovarian): 2.69 µM
GI50 (OVCAR-4 ovarian): 5.62 µM
TGI (OVCAR-4 ovarian): 16.7 µM
GI50 (HCC-2998 colon): 1.37 µM
TGI (HCC-2998 colon): 2.98 µM
GI50 (SK-MEL-5 melanoma): 4.49 µM
TGI (SK-MEL-5 melanoma): 16.7 µM
GI50 (786-0 renal): 1.48 µM
TGI (786-0 renal): 3.09 µM
GI50 (SNB-19 CNS): 4.99 µM
TGI (SNB-19 CNS): 19.8 µM
GI50 (OVCAR-8 ovarian): 3.9 µM
TGI (OVCAR-8 ovarian): 17.5 µM
GI50 (CAKI-1 renal): 3.86 µM
TGI (CAKI-1 renal): 17.6 µM
